Test results published in US8822464B2, “N-aryl-piperazine derivatives and their use as positive allosteric modulators of mGluR5 receptors” (Boehringer Ingelheim International GmbH, priority 2011, dated 2014).

Target: T1, human recombinant mGluR5 (Homo sapiens, UniProt P41594)
T1 construct: expressed in transfected cells; host or cells: HEK 293 cell line; cultured with tetracycline, hygromycin and geneticin; tetracycline withdrawn 3-7 days before the assay
Test: positive modulation of mGluR5, calcium based FLIPR assay in HEK 293 cells
Details: HEK 293 cell line expressing human recombinant mGluR5; peak height of Ca release fluorescence signal after glutamate at approximately 5% basal stimulation; nonlinear regression
Experimental: The positive modulation of mGluR5 is measured in a HEK 293 cell line expressing human recombinant mGluR5 and is detected with calcium based FLIPR assay. The cells are cultured with DMEM supplemented with 10% FCS, 2 μg/mL tetracycline, 100 μg/mL hygromycin and 500 μg/mL gneticin. The cell culture media is exchanged for tetracycline-free cell culture media 3-7 days before the assay. One day before the assay the cell culture medium is exchanged to DMEM without glutamine and phenol red and supplemented with 10% FCS, 100 μg/mL hygromycin and 500 μg/mL geneticin. On the assay day, the medium of the subconfluent cultures is removed and the cells are detached by addition of 2.5 ml EDTA(0.02%) per 175 cm2 culture flask for 1 minute. The cells are resuspend in Ringer solution (140 mM NaCl, 5 mM KCl, 2.5 mM CaCl2, 1.5 mM MgCl2, 5 mM Glucose, 10 mM Hepes; adjusted to pH 7.4 with NaOH), pooled and Ringer solution added to adjust the volume to 50 mL. The cell suspension is centrifuged for 5 min at 1500 U/min (425 g). The supernatant is removed and the cells washed a second time with 50 ml fresh Ringer solution and centrifuged again as before. The supernatant is again removed and the pellet resuspended in Ringer solution to 1,000,000 cells/ml (1×10^6 cells/mL). The cells are plated onto BD BioCoat Poly-D-Lysine 384 well plates (20.000 cells/well; 20 μl/well). The lid covered plates are then incubated until use at 37° C./10% CO2. For dye loading, 20 μl of Calcium-4 assay kit solution (prepared according to the manufacturer's description in Ringer solution) are added to the cells and the plates are incubated for 80 min 37° C. and then 10 min at room temperature.
Controls, Compound Dilution and Assay Execution:
Each assay plate contained wells with “high” and “low” controls:
Low controls 1% DMSO/ringer solution+basal glutamate activation (defined as 100% CTL).
High controls 10 μM CDPPB+basal glutamate activation (defined as 200% CTL).
Test compounds are dissolved and diluted in DMSO to 100-fold the desired concentrations. In a second step, the compounds are diluted in Ringer solution such that the compounds are 4-fold more concentrated than the desired final assay concentration. The final DMSO concentration was 1%.
20 μl of each compound solution are then transferred to the assay plate and the Ca2+ kinetic is measured to determine any intrinsic compound activity. After 5 min incubation in the FLIPR device, the second stimulation with 20 μl of glutamate in Ringer solution (glutamate concentration adjusted to approximately 5% basal stimulation of the maximal possible glutamate effect) is added and the kinetic Ca2+ response of the wells was measured for the modulation effect.
The peak height of the Ca release related fluorescence signal (9-66) is used for the EC50. The EC50 of the modulation is calculated over a nonlinear regression with GraphPad Prism (Table 1).

T1 sequence (P41594 21-1212): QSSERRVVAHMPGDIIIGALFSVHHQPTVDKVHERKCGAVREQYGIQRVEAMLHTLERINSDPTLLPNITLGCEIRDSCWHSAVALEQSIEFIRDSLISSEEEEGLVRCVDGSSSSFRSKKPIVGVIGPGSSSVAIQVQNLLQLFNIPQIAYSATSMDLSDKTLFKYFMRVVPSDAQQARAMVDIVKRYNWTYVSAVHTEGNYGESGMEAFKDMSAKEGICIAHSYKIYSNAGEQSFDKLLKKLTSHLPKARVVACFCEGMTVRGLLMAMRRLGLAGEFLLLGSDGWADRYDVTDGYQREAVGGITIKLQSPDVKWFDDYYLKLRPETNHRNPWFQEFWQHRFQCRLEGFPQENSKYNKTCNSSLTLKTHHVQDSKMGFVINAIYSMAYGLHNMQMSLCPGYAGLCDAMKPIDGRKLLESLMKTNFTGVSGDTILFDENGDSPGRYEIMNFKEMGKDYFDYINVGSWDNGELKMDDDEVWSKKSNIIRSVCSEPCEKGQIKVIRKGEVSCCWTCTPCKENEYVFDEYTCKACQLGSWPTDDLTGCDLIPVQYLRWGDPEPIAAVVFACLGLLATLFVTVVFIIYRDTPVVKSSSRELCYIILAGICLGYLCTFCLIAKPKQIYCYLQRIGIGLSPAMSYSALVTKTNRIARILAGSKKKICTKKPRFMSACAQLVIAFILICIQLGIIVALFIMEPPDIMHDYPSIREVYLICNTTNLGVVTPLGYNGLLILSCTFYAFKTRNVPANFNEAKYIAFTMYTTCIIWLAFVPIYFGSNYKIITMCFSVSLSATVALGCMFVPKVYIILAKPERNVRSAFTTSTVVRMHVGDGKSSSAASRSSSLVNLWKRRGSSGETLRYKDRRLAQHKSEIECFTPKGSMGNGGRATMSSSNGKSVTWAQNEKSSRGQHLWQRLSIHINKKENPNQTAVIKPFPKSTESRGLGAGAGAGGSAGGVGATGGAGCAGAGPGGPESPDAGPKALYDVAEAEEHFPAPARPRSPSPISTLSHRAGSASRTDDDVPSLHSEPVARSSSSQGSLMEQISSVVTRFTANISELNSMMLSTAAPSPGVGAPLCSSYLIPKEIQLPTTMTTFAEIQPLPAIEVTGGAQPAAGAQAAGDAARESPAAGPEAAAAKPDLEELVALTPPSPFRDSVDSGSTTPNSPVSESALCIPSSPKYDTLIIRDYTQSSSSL

SMILES	EC50 [nM]
O=C(Cn1nc(-c2ccc(F)cn2)cc1-c1ccccc1)N1CCN(c2ccccn2)CC1 [Example 7.01.58]	211
O=C(Cn1nc(-c2ccc(F)cn2)cc1-c1ccc(F)cc1)N1CCN(c2ccccn2)CC1 [Example 7.01.59]	118
O=C(Cn1nc(-c2ccc(F)cn2)cc1-c1ccccc1)N1CCN(c2cccnn2)CC1 [Example 7.01.60]	1230
COc1cc(N2CCN(C(=O)Cn3nc(-c4ccc(F)cn4)cc3-c3ccccc3)CC2)ncn1 [Example 7.01.61]	246
O=C(Cn1nc(-c2ccc(F)cn2)cc1-c1ccc(F)cc1)N1CCN(c2ncccn2)CC1 [Example 7.01.62]	48
COc1cc(N2CCN(C(=O)Cn3nc(-c4ccc(F)cn4)cc3-c3ccc(F)cc3)CC2)ncn1 [Example 7.01.63]	94
O=C(Cn1nc(-c2ccc(F)cn2)cc1-c1ccc(F)cc1)N1CCN(c2cccnn2)CC1 [Example 7.01.64]	677
O=C(Cn1nc(-c2ccc(F)cc2)cc1-c1ccc(F)cn1)N1CCN(c2ncccn2)CC1 [Example 7.01.65]	253
O=C(Cn1nc(-c2ccccc2)cc1-c1ccc(F)cn1)N1CCN(c2ncccn2)CC1 [Example 7.01.66]	957
CCc1cc(-c2ccc(F)c(C)c2)nn1CC(=O)N1CCN(c2cc(OC)ncn2)CC1 [Example 7.01.67]	61
CCc1cc(-c2ccc(F)c(C)c2)nn1CC(=O)N1CCN(c2cc(OC)ccn2)CC1 [Example 7.01.68]	74
CCc1cc(-c2ccc(F)c(C)c2)nn1CC(=O)N1CCN(c2ccccn2)CC1 [Example 7.01.69]	79
CCc1cc(-c2ccc(F)c(C)c2)nn1CC(=O)N1CCN(c2ncccn2)CC1 [Example 7.01.70]	41
CCc1cc(-c2ccc(F)c(C)c2)nn1CC(=O)N1CCN(c2ncc(OC)cn2)CC1 [Example 7.01.71]	51
CCc1cc(-c2ccc(F)c(C)c2)nn1CC(=O)N1CCN(c2ncc(F)cn2)CC1 [Example 7.01.72]	63
CCc1cc(-c2ccc(F)cc2)nn1CC(=O)N1CCN(c2ccccn2)CC1 [Example 7.01.73]	419
CCc1cc(-c2ccc(F)cc2)nn1CC(=O)N1CCN(c2ncccn2)CC1 [Example 7.01.74]	253
CCc1cc(-c2ccc(F)cc2)nn1CC(=O)N1CCN(c2cc(OC)ccn2)CC1 [Example 7.01.75]	421
CCc1cc(-c2ccc(F)cc2)nn1CC(=O)N1CCN(c2ncc(OC)cn2)CC1 [Example 7.01.76]	388
CCc1cc(-c2ccc(F)cc2)nn1CC(=O)N1CCN(c2cc(OC)ncn2)CC1 [Example 7.01.77]	697
CCc1cc(-c2ccc(F)cc2)nn1CC(=O)N1CCN(c2ncc(F)cn2)CC1 [Example 7.01.78]	723

SMILES	EC50 [nM]
CCCc1cc(-c2ccc(F)c(C)c2)nn1CC(=O)N1CCN(c2cc(OC)ncn2)CC1 [Example 7.01.79]	26
CCCc1cc(-c2ccc(F)c(C)c2)nn1CC(=O)N1CCN(c2cc(OC)ccn2)CC1 [Example 7.01.80]	45
CCCc1cc(-c2ccc(F)c(C)c2)nn1CC(=O)N1CCN(c2ncccn2)CC1 [Example 7.01.81]	13
CCCc1cc(-c2ccc(F)c(C)c2)nn1CC(=O)N1CCN(c2ncc(OC)cn2)CC1 [Example 7.01.82]	33
CCCc1cc(-c2ccc(F)c(C)c2)nn1CC(=O)N1CCN(c2ccccn2)CC1 [Example 7.01.83]	52
CCCc1cc(-c2ccc(F)c(C)c2)nn1CC(=O)N1CCN(c2cccnn2)CC1 [Example 7.01.84]	67
COc1ccnc(N2CCN(C(=O)Cn3nc(-c4ccc(F)cc4)cc3C(C)C)CC2)c1 [Example 7.01.85]	371
CCc1cc(-c2ccc(C)c(C)c2)nn1CC(=O)N1CCN(c2ncccn2)CC1 [Example 7.01.87]	69
COc1cc(N2CCN(C(=O)Cn3nc(-c4ccc(F)cc4)cc3C(C)C)CC2)ncn1 [Example 7.01.88]	366
COc1cnc(N2CCN(C(=O)Cn3nc(-c4ccc(F)cc4)cc3C(C)C)CC2)nc1 [Example 7.01.89]	577
CC(C)c1cc(-c2ccc(F)cc2)nn1CC(=O)N1CCN(c2ncccn2)CC1 [Example 7.01.90]	157
CCc1cc(-c2ccc(C)c(C)c2)nn1CC(=O)N1CCN(c2ccccn2)CC1 [Example 7.01.91]	195
CCc1cc(-c2ccc(C)c(C)c2)nn1CC(=O)N1CCN(c2cc(OC)ccn2)CC1 [Example 7.01.92]	302
CCc1cc(-c2ccc(C)c(C)c2)nn1CC(=O)N1CCN(c2cc(OC)ncn2)CC1 [Example 7.01.93]	170
CCc1cc(-c2cccc(C)c2)nn1CC(=O)N1CCN(c2ncccn2)CC1 [Example 7.01.94]	136
CCc1cc(-c2cccc(C)c2)nn1CC(=O)N1CCN(c2ccccn2)CC1 [Example 7.01.95]	237
CCc1cc(-c2cccc(C)c2)nn1CC(=O)N1CCN(c2cc(OC)ccn2)CC1 [Example 7.01.96]	168
CCc1cc(-c2cccc(C)c2)nn1CC(=O)N1CCN(c2cc(OC)ncn2)CC1 [Example 7.01.97]	181
Cc1ccc(-c2cc(-c3ccccc3)n(CC(=O)N3CCN(c4ncccn4)CC3)n2)cc1C [Example 7.01.98]	13
CCc1cc(-c2ccc(C)c(C)c2)nn1CC(=O)N1CCN(c2ncc(OC)cn2)CC1 [Example 7.01.99]	129
CCc1cc(-c2cccc(C)c2)nn1CC(=O)N1CCN(c2ncc(OC)cn2)CC1 [Example 7.01.100]	126

SMILES	EC50 [nM]
COc1cc(N2CCN(C(=O)Cn3nc(-c4ccc(C)c(C)c4)cc3-c3ccccc3)CC2)ncn1 [Example 7.01.101]	17
Cc1ccc(-c2cc(-c3ccccc3)n(CC(=O)N3CCN(c4ccccn4)CC3)n2)cc1C [Example 7.01.102]	20
COc1cnc(N2CCN(C(=O)Cn3nc(-c4ccc(C)c(C)c4)cc3-c3ccccc3)CC2)nc1 [Example 7.01.103]	24
Cc1cc(-c2cc(C)n(CC(=O)N3CCN(c4ncccn4)CC3)n2)ccc1F [Example 7.01.104]	39
Cc1ccc(-c2cc(-c3ccccc3)n(CC(=O)N3CCN(c4ccccn4)CC3)n2)nc1 [Example 7.01.106]	35
COCCCc1cc(-c2ccc(F)c(C)c2)nn1CC(=O)N1CCN(c2ncccn2)CC1 [Example 7.01.107]	64
COCCCc1cc(-c2ccc(F)c(C)c2)nn1CC(=O)N1CCN(c2ccccn2)CC1 [Example 7.01.108]	1260
COCCCc1cc(-c2ccc(F)c(C)c2)nn1CC(=O)N1CCN(c2cc(OC)ccn2)CC1 [Example 7.01.109]	140
COCCCc1cc(-c2ccc(F)c(C)c2)nn1CC(=O)N1CCN(c2cc(OC)ncn2)CC1 [Example 7.01.110]	137
Cc1ccc(-c2cc(-c3ccccc3)n(CC(=O)N3CCN(c4ncccn4)CC3)n2)nc1 [Example 7.01.111]	24
COCCCc1cc(-c2ccc(F)c(C)c2)nn1CC(=O)N1CCN(c2ncc(OC)cn2)CC1 [Example 7.01.112]	120
CCc1cc(-c2cccc(Cl)c2)nn1CC(=O)N1CCN(c2ncccn2)CC1 [Example 7.01.113]	94
CCc1cc(-c2cccc(Cl)c2)nn1CC(=O)N1CCN(c2ccccn2)CC1 [Example 7.01.114]	153
CCc1cc(-c2cccc(Cl)c2)nn1CC(=O)N1CCN(c2ncc(OC)cn2)CC1 [Example 7.01.115]	65
CCc1cc(-c2cccc(Cl)c2)nn1CC(=O)N1CCN(c2cc(OC)ncn2)CC1 [Example 7.01.116]	89
Cc1cc(-c2cc(CC(C)C)n(CC(=O)N3CCN(c4ccccn4)CC3)n2)ccc1F [Example 7.01.117]	28
Cc1cc(-c2cc(CC(C)C)n(CC(=O)N3CCN(c4ncccn4)CC3)n2)ccc1F [Example 7.01.118]	18
COc1ccnc(N2CCN(C(=O)Cn3nc(-c4ccc(C)cn4)cc3-c3ccccc3)CC2)c1 [Example 7.01.119]	19
COc1cc(N2CCN(C(=O)Cn3nc(-c4ccc(C)cn4)cc3-c3ccccc3)CC2)ncn1 [Example 7.01.120]	20
